Assay results taken from ChEMBL document CHEMBL1158666, “Carmabins A and B, new lipopeptides from the Caribbean cyanobacterium Lyngbya majuscula” (J Nat Prod, 1998).
Calls of active or inactive are those of the source. The rule behind the calls is not given here. Square brackets hold non-standard residues; d marks the D form. Peptide text beside a SMILES is read from it. * marks the point of attachment. NMeY = CN[C@@H](Cc1ccc(O)cc1)C(=O)O; NMeF = CN[C@@H](Cc1ccccc1)C(=O)O; X2 = CC(=O)CCCCC(C)CC(C)C(=O)*; X1 = C#CCCCCC(C)CC(C)C(=O)*; NMeA = CN[C@@H](C)C(=O)O

Test system: NCI60
Assay: Cytotoxicity against human NCI60 cells
Type: functional, cell-based

| Compound | Activity |
| --- | --- |
| C#CCCCCC(C)CC(C)C(=O)N(C)[C@@H](Cc1ccccc1)C(=O)N[C@@H](C)C(=O)N(C)[C@@H](C)C(=O)N(C)[C@@H](Cc1ccc(OC)cc1)C(N)=O (some centres not stated) (X1-[NMeF]A[NMeA][NMeY](Me)-NH2) | inactive |
| COc1ccc(C[C@@H](C(N)=O)N(C)C(=O)[C@H](C)N(C)C(=O)[C@H](C)NC(=O)[C@H](Cc2ccccc2)N(C)C(=O)C(C)CC(C)CCCCC(C)=O)cc1 (some centres not stated) (X2-[NMeF]A[NMeA][NMeY](Me)-NH2) | inactive |
